Results taken from PMC8377144, “Retro-enantio isomer of angiopep-2 assists nanoprobes across the blood-brain barrier for targeted magnetic resonance/fluorescence imaging of glioblastoma” (Signal Transduction and Targeted Therapy, 2021).

Test system: in vitro BBB model (bEnd.3 cells cocultured with U87-MG cells)
Experiment: NaFl permeability test of the in vitro BBB model (Transwell)
Format: in vitro ADME, mouse
Settings: bEnd.3 upper / U87-MG lower chamber, 3 µm polycarbonate, 0.33 cm^2, 200 µL NaFl 10 µg/mL upper, 900 µL PBS lower, 37 °C, sampling 30, 60, 90 min, microplate reader 485/535 nm
Procedure: Construction of the in vitro BBB model: U87-MG cells and bEnd.3 cells were initially cultured in high-glucose DMEM containing 10% FBS and 1% penicillin/streptomycin at 37 °C with 5% CO2. Moreover, a layer of a collagen solution was smeared on the inner side of the polycarbonate Transwell (3 µm mean pore size, 0.33 cm^2 surface area, Millipore, USA) and dried naturally on a clean bench for 30 min. Then, bEnd.3 cells were inoculated into the upper chamber of 24-well transwells units at a density of 5 × 10^4 cells per well. Two days later, U87-MG cells were inoculated into the lower chamber at a density of 1 × 10^5 cells per well and cocultured with bEnd.3 cells for one week.
Another test taken as an example from a previous study using sodium fluorescein (NaFl) was also introduced to evaluate in vitro BBB permeability.[44] […] The absorbance of standard solutions was obtained by a multidetection monochrometer microplate reader, and subsequently, a NaFl concentration-absorbance curve was made. With the help of the curve, we measured the in vitro BBB permeability with NaFl. […] Then, a multidetection monochrometer microplate reader (485/535 nm) was used to measure the amount of NaFl in the […]. The apparent permeability coefficient (Papp) was calculated as follows: […]

## O=C([O-])c1ccccc1-c1c2ccc(=O)cc-2oc2cc([O-])ccc12.[Na+].[Na+] [NaFl, sodium fluorescein]
  Papp of NaFl, BBB model group: 11.24 ± 0.73 × 10^−6 cm/s
